From the NIST ThermoML archive (doi:10.1021/acs.jced.7b00106)

Details: Liquid, Hot wire method

FC(F)(F)/C=C/Cl [(E)-1-chloro-3,3,3-trifluoroprop-1-ene]
Details	thermal conductivity [W/m/K]
242.05 K, 36072 kPa	0.1119
242.06 K, 13440 kPa	0.1056
242.08 K, 7089 kPa	0.1037
242.09 K, 28062 kPa	0.1106
242.11 K, 583 kPa	0.101
242.13 K, 20421 kPa	0.1074
242.18 K, 13439 kPa	0.105
242.22 K, 7107 kPa	0.1031
242.24 K, 585 kPa	0.1007
242.32 K, 63843 kPa	0.1195
242.33 K, 53263 kPa	0.1172
242.34 K, 36064 kPa	0.112
242.34 K, 43841 kPa	0.1149
242.41 K, 28063 kPa	0.1093
242.45 K, 20418 kPa	0.1078
242.46 K, 53261 kPa	0.1167
242.46 K, 63839 kPa	0.1194
242.47 K, 43873 kPa	0.1147
242.49 K, 36067 kPa	0.1119
242.5 K, 13437 kPa	0.1053
242.54 K, 7100 kPa	0.1033
242.55 K, 28067 kPa	0.11
242.56 K, 597 kPa	0.101
242.59 K, 20435 kPa	0.1072
242.65 K, 13436 kPa	0.105
242.69 K, 7107 kPa	0.1029
242.76 K, 53251 kPa	0.1166
242.76 K, 63833 kPa	0.1199
242.79 K, 43839 kPa	0.115
242.81 K, 36066 kPa	0.1121
242.88 K, 28066 kPa	0.1102
242.91 K, 63824 kPa	0.1193
242.93 K, 20434 kPa	0.1075
242.93 K, 53255 kPa	0.1164
242.96 K, 43854 kPa	0.1143
242.98 K, 36047 kPa	0.1118
242.99 K, 13448 kPa	0.1056
243.04 K, 7102 kPa	0.1029
243.05 K, 28059 kPa	0.1096
243.08 K, 588 kPa	0.101
243.11 K, 20431 kPa	0.1071
243.18 K, 13440 kPa	0.105
243.22 K, 7112 kPa	0.1026
243.23 K, 63821 kPa	0.1197
243.26 K, 584 kPa	0.1004
243.26 K, 53253 kPa	0.1164
243.29 K, 43835 kPa	0.1146
243.3 K, 36069 kPa	0.1121
243.4 K, 28075 kPa	0.1098
243.42 K, 63814 kPa	0.1191
243.44 K, 53247 kPa	0.1163
243.46 K, 20431 kPa	0.1074
243.49 K, 43850 kPa	0.114
243.51 K, 36041 kPa	0.1117
243.53 K, 13443 kPa	0.1053
243.58 K, 7097 kPa	0.103
243.6 K, 28066 kPa	0.1094
243.63 K, 586 kPa	0.1005
243.66 K, 20425 kPa	0.107
243.74 K, 63809 kPa	0.1193
243.78 K, 53242 kPa	0.1168
243.8 K, 7115 kPa	0.1027
243.83 K, 43827 kPa	0.1143
243.85 K, 580 kPa	0.1001
243.85 K, 36062 kPa	0.1118
243.96 K, 28066 kPa	0.1097
243.96 K, 63804 kPa	0.119
244 K, 53243 kPa	0.1163
244.02 K, 20445 kPa	0.1073
244.06 K, 43851 kPa	0.1139
244.09 K, 36043 kPa	0.1116
244.19 K, 28067 kPa	0.1093
244.27 K, 20428 kPa	0.1068
261.5 K, 276 kPa	0.09433
261.52 K, 5038 kPa	0.09629
261.54 K, 10280 kPa	0.09846
261.55 K, 22296 kPa	0.1036
261.56 K, 15956 kPa	0.1002
261.58 K, 270 kPa	0.09415
261.61 K, 5056 kPa	0.09622
261.63 K, 10283 kPa	0.09831
261.64 K, 22292 kPa	0.1023
261.65 K, 15950 kPa	0.1003
261.91 K, 36411 kPa	0.1079
261.91 K, 42842 kPa	0.1093
261.93 K, 282 kPa	0.09438
261.93 K, 5041 kPa	0.09641
261.94 K, 29216 kPa	0.1051
261.95 K, 22290 kPa	0.103
261.96 K, 10273 kPa	0.09851
261.96 K, 15950 kPa	0.1005
261.97 K, 65297 kPa	0.1155
262 K, 59186 kPa	0.115
262.01 K, 36414 kPa	0.1074
262.01 K, 42847 kPa	0.1089
262.02 K, 51140 kPa	0.1116
262.04 K, 270 kPa	0.094
262.05 K, 29220 kPa	0.105
262.06 K, 5047 kPa	0.09593
262.06 K, 10278 kPa	0.09816
262.06 K, 22290 kPa	0.1024
262.06 K, 65280 kPa	0.115
262.08 K, 15930 kPa	0.1003
262.1 K, 59178 kPa	0.1128
262.12 K, 51139 kPa	0.1114
262.33 K, 36413 kPa	0.1071
262.33 K, 42846 kPa	0.1091
262.37 K, 65275 kPa	0.1153
262.38 K, 29224 kPa	0.1054
262.4 K, 275 kPa	0.09425
262.4 K, 22288 kPa	0.1026
262.41 K, 59182 kPa	0.1141
262.42 K, 5040 kPa	0.09609
262.42 K, 10267 kPa	0.09829
262.43 K, 51128 kPa	0.1115
262.44 K, 15943 kPa	0.1005
262.46 K, 42848 kPa	0.1091
262.47 K, 36410 kPa	0.107
262.5 K, 65252 kPa	0.115
262.51 K, 29222 kPa	0.1049
262.53 K, 59166 kPa	0.1136
262.55 K, 22288 kPa	0.1025
262.56 K, 273 kPa	0.09391
262.56 K, 51133 kPa	0.1113
262.57 K, 5039 kPa	0.09583
262.57 K, 10288 kPa	0.09813
262.57 K, 15931 kPa	0.09995
262.8 K, 42854 kPa	0.1091
262.81 K, 36411 kPa	0.107
262.81 K, 65229 kPa	0.1152
262.86 K, 29224 kPa	0.105
262.86 K, 59156 kPa	0.1141
262.89 K, 51121 kPa	0.1116
262.9 K, 22284 kPa	0.1027
262.94 K, 280 kPa	0.094
262.94 K, 10264 kPa	0.09833
262.94 K, 15933 kPa	0.1003
262.95 K, 5058 kPa	0.09606
262.95 K, 42854 kPa	0.1089
262.96 K, 65209 kPa	0.115
262.98 K, 36413 kPa	0.1068
263.01 K, 59151 kPa	0.1135
263.03 K, 29224 kPa	0.1045
263.05 K, 51114 kPa	0.1112
263.06 K, 22282 kPa	0.1023
